Data published in PubChem BioAssay AID1963849 (Molecular Pharmacology Branch, DTP, NCI, 2024).
pIC50: −log10 of the molar value. “And” between values parts separate entries of the source, which are not always exact repeats. Equal values may be shown once.

System: 299254-011-R-J1-PDC complex spheroid viability
Assay: Anticancer human tumor 299254-011-R-J1-PDC patient-derived melanoma cell line growth inhibition [POLQ]
Conditions: for viability, T/C: stronger effect = lower value
Experimental: Multicellular complex tumor spheroid response to Polymerase (POL) inhibitors (novobiocin, ART-558, RP6685) in combination with a variety of drugs and investigational agents in selected tumor cell lines
The POL inhibitors (novobiocin, ART-558, and RP6685) were evaluated both individually and in combination with standard of care and investigational anticancer small molecules within a complex spheroid model of solid tumors. . Complex spheroids include a stromal component modeled by human endothelial cells (HUVEC) and fibroblasts modeled by human mesenchymal stem cells (MSCs). The concentration ranges selected for each drug and investigational agent were based upon clinically achievable concentrations if the clinical Cmax of the agent was known.
Compounds. The drugs and investigational agents: novobiocin (NSC847541), ART-558 (NSC835418), RP-6685 (NSC848927), peposertib (NSC802822), ceralasertib (NSC780249), elimusertib (NSC800525), camonsertib (NSC841442), AZD-1390 (NSC803789), olaparib (NSC753686), talazoparib (NSC767125), rucaparib (NSC756644), sotorasib (NSC818433), MRTX-1133 (NSC836407), SN-38 (NSC673596), topotecan (NSC609699), epotoside (NSC141540), doxorubicin (NSC123127), gemcitabine (NSC613327), 5-fluorouracil (NSC19893), paclitaxel (NSC125973), vemurafenib (NSC761431), MSA-2 (NSC828583), SN-011 (NSC837082), adavosertib (NSC754352), prexasertib (NSC758257), carboplatin (NSC241240) and oxaliplatin (NSC266046), were obtained from the National Cancer Institute (NCI) Developmental Therapeutics Program Chemical Repository (21). The FDA-approved anticancer drug set is available from the Developmental Therapeutics Program at https://dtp.cancer.gov/organization/dscb/obtaining/. […] The stock solutions were prepared in dimethyl sulfoxide (DMSO, Sigma-Aldrich, St. Louis, MO, cat. D2650), except for the platinum compounds which were prepared in saline (Quality Biological, Gaithersburg, MD, cat. 114-055-101), at 800-fold the tested concentration and stored at -70 degrees C prior to their use. All drugs and investigational agents were tested over a range starting from a high concentration at or near the clinical Cmax and decreasing in half-log increments. If the clinical Cmax for an agent had not been determined, the highest concentration tested was 10 microM, except for SN-38, which was tested at a high concentration of 1 microM.
Cell Culture. All cells were maintained in an incubator at 37 degrees C and 5% CO2 with 95% humidity. The PDC lines were cultured according to standard operating procedures established by the NCI PDMR (https://pdmr.cancer.gov). Table 3 of the manuscript, lists the cell lines along with the number of the three cell types plated to form the mct-spheroids and media for tumor cell growth. After thawing, all PDC lines, except 997537-175-T-J1-PDC and 415267-285-R-J2-PDC, were cultured in Matrigel-coated flasks prepared with a working solution of 1X Ham's F-12 nutrient mix, without supplementation (Thermo Fisher Scientific, cat. 11765054), 100 U/mL penicillin-streptomycin (Thermo Fisher Scientific, cat. 15140122), and 2.5% Matrigel (Corning Inc., Corning, NY, cat. 354248) for the first three passages. The two PDC lines 997537-175-T-J1-PDC and 415267-285-R-J2-PDC were cultured on uncoated flasks. The 857933-349-R-J2-PDC line was cultured in 6C/Colon 1B media containing advanced DMEM/F-12 (Thermo Fisher Scientific, cat. 12634028), 10 mM HEPES (Thermo Fisher Scientific, cat. 15630080), 1X GlutaMAX supplement (Thermo Fisher Scientific, cat. 35050061), 0.1 mg/mL primocin (InvivoGen, San Diego, CA, cat. ant-pm-2), 10% defined fetal bovine serum, heat inactivated (HyClone Laboratories Inc., Logan, UT, cat. SH30070.03HI), 50% L-WRN conditioned media (ATCC, cat. CRL-3276), 1.25 mM N-Acetyl-L-cysteine (Sigma-Aldrich, cat. A9165), 10 mM nicotinamide (Sigma-Aldrich, cat. N0636), 1X B-27 supplement (Thermo Fisher Scientific, cat. 17504044), 1X N-2 supplement (Thermo Fisher Scientific, cat. […]
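Further: spheroids exposed to drugs for one week before measurement.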
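Wherever viability, T/C is given: percent viability relative to DMSO vehicle control taken as 100%.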

`C=CC(=O)N1CCN(c2nc(=O)n(-c3c(C)ccnc3C(C)C)c3nc(-c4c(O)cccc4F)c(F)cc23)C(C)C1` (stereo unspecified) was tested, and the viability, T/C (compound 0.0316 µM) was 84.9% and 90.1% and 80.7%, the viability, T/C (compound 0.1 µM) was 71.5% and 77.5% and 66.9% and the viability, T/C (compound 0.316 µM) was 85.2% and 74.5% and 70.9%. The viability, T/C (compound 1 µM) was 72.8% and 66.9% and 60.2%, the viability, T/C (compound 3.16 µM) was 63.5% and 85.5% and 63% and the viability, T/C (compound 10 µM) was 66.1% and 77.9% and 62.6%. It also gave a pIC50 (curve of compound) of under 5.00.

For `CC(C)n1c(=O)n(C)c2cnc3cc(F)c(-c4ccc(OCCCN5CCCCC5)nc4)cc3c21`, the viability, T/C (compound 0.0316 µM) was 98.8% and 106% and 88.4%, the viability, T/C (compound 0.1 µM) was 96.7% and 99.9% and 85.7% and the viability, T/C (compound 0.316 µM) was 112% and 108% and 95.3%. The viability, T/C (compound 1 µM) was 101% and 95.5% and 94.9%, the viability, T/C (compound 3.16 µM) was 89.8% and 106% and 90.2% and the viability, T/C (compound 10 µM) was 73.4% and 78.9% and 88.5%. It also gave a pIC50 (curve of compound) of under 5.00.

With `O=C(Nc1ccc(O)c(NS(=O)(=O)c2ccc(F)cc2)c1)c1ccc(-c2ccccc2)cc1` + COC1C(OC(N)=O)C(O)C(Oc2ccc3c(O)c(NC(=O)c4ccc(O)c(CC=C(C)C)c4)c(=O)oc3c2C)OC1(C)C the pIC50 (curve of first compound, second compound 0.0316 µM) was 5.04, the pIC50 (curve of first compound, second compound 0.1 µM) was under 5.00 and the pIC50 (curve of first compound, second compound 0.316 µM) was 5.06. The pIC50 (curve of first compound, second compound 1 µM) was under 5.00, the pIC50 (curve of first compound, second compound 3.16 µM) was under 5.00 and the pIC50 (curve of first compound, second compound 10 µM) was under 5.00. The viability, T/C (second compound 0.0316 µM, first compound 0.0316 µM) was 105%, the viability, T/C (second compound 0.0316 µM, first compound 0.1 µM) was 96.9% and the viability, T/C (second compound 0.0316 µM, first compound 0.316 µM) was 94.2%. It also gave a viability, T/C (second compound 0.0316 µM, first compound 1 µM) of 109%, a viability, T/C (second compound 0.0316 µM, first compound 3.16 µM) of 112% and a viability, T/C (second compound 0.0316 µM, first compound 10 µM) of 45.3%. For the same molecule, the viability, T/C (second compound 0.1 µM, first compound 0.0316 µM) was 95.6%, the viability, T/C (second compound 0.1 µM, first compound 0.1 µM) was 114% and the viability, T/C (second compound 0.1 µM, first compound 0.316 µM) was 105%. The viability, T/C (second compound 0.1 µM, first compound 1 µM) was 94.6%, the viability, T/C (second compound 0.1 µM, first compound 3.16 µM) was 86.3% and the viability, T/C (second compound 0.1 µM, first compound 10 µM) was 57.1%. For the same molecule, the viability, T/C (second compound 0.316 µM, first compound 0.0316 µM) was 127%, the viability, T/C (second compound 0.316 µM, first compound 0.1 µM) was 101% and the viability, T/C (second compound 0.316 µM, first compound 0.316 µM) was 104%. It also gave a viability, T/C (second compound 0.316 µM, first compound 1 µM) of 95.7%, a viability, T/C (second compound 0.316 µM, first compound 3.16 µM) of 97.7% and a viability, T/C (second compound 0.316 µM, first compound 10 µM) of 42.6%. The viability, T/C (second compound 1 µM, first compound 0.0316 µM) was 110%, the viability, T/C (second compound 1 µM, first compound 0.1 µM) was 104% and the viability, T/C (second compound 1 µM, first compound 0.316 µM) was 108%. It also gave a viability, T/C (second compound 1 µM, first compound 1 µM) of 118%, a viability, T/C (second compound 1 µM, first compound 3.16 µM) of 93.3% and a viability, T/C (second compound 1 µM, first compound 10 µM) of 54.7%. The viability, T/C (second compound 3.16 µM, first compound 0.0316 µM) was 109%, the viability, T/C (second compound 3.16 µM, first compound 0.1 µM) was 114% and the viability, T/C (second compound 3.16 µM, first compound 0.316 µM) was 109%. The viability, T/C (second compound 3.16 µM, first compound 1 µM) was 94.6%, the viability, T/C (second compound 3.16 µM, first compound 3.16 µM) was 99.4% and the viability, T/C (second compound 3.16 µM, first compound 10 µM) was 55.9%. It also gave a viability, T/C (second compound 10 µM, first compound 0.0316 µM) of 96.2%, a viability, T/C (second compound 10 µM, first compound 0.1 µM) of 127% and a viability, T/C (second compound 10 µM, first compound 0.316 µM) of 106%. The viability, T/C (second compound 10 µM, first compound 1 µM) was 103%, the viability, T/C (second compound 10 µM, first compound 3.16 µM) was 96.5% and the viability, T/C (second compound 10 µM, first compound 10 µM) was 58.4%.
